Data: US20040247577A1, “Method and composition for inhibiting heparanase activity” (priority 2001, published 2004)

What was measured:
lung metastasis = conditions: cited from earlier work; for tumor growth and angiogenesis: Parish et al. 1999; for incidence of lung metastasis: experimental animals
human heparanase = target: T1, human heparanase (Homo sapiens, UniProt Q9Y251); conditions: cited from earlier work
T1 sequence (Q9Y251 158-543): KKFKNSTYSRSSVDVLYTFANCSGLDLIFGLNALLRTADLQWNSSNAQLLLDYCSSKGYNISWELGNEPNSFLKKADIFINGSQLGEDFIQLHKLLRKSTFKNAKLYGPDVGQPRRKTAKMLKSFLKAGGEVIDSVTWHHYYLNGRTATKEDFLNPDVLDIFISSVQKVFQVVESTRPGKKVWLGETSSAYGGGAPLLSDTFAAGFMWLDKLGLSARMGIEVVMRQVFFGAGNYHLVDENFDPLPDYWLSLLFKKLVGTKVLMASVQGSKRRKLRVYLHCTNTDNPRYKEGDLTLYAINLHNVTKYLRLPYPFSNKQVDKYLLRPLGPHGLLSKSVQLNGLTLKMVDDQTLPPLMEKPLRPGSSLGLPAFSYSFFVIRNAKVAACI
T1 sequence (Q9Y251 36-109): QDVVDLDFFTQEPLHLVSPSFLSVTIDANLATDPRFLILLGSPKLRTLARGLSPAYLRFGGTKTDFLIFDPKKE

mouse heparanase = target: T2, mouse heparanase (Mus musculus, UniProt Q6YGZ1); assay: Inhibition of recombinant mouse heparanase activity; assay type: biochemical
T2 construct: heterodimer of the 50 kDa polypeptide (Lys^150-Ile^535) and the 8 kDa peptide (Asp^28-Lys^100); made in house
T2 sequence (Q6YGZ1 150-535): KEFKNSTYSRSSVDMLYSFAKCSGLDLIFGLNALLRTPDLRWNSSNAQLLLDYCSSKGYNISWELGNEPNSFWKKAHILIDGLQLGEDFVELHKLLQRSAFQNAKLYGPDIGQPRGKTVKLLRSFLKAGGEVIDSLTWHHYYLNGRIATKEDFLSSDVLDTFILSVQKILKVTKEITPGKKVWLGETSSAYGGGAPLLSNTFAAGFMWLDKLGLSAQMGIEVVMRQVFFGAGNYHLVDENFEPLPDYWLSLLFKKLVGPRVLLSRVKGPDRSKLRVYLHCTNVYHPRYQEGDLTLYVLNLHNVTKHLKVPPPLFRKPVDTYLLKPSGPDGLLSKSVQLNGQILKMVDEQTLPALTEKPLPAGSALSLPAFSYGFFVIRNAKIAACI
T2 sequence (Q6YGZ1 28-100): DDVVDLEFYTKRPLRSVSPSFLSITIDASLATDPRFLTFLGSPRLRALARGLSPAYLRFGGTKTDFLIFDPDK
Method: (§1) Polypeptide samples were mixed with 25 μl of ^35S-ECM-HSPG (a generous gift from Dr. Israel Vlodavsky, The Hadassah-Hebrew University Hospital, Jerusalem, Israel) in a buffer containing 0.1 M sodium acetate, pH 5.0, 0.01% Triton X-100. After overnight incubation at 37° C., the samples were loaded onto a Superose 12 column (0.7×25 cm, 0.5 ml/min) and the radioactivity of the fractions (0.25 ml/fraction) were measured in a β-scintillation counter. The enzymatic activity was also studied for the ability to degrade HS. For this purpose, ^3H-HS-Sepharose (6.25 nM) was substituted as the substrate in the heparanase reaction, and the radioactivity released into the reaction buffer after overnight incubation was determined.

[1] = Enzymatic activity of heparanase on radiolabeled HSPG / HS substrates; assay type: biochemical
Method: as §1, with “Israel Vlodavsky, The Hadassah-Hebrew University Hospital, Jerusalem, Israel) in a buffer containing 0.1 M sodium acetate, pH 5.0, 0.01% Triton X-100.” left out
To test whether the recombinant mouse heparanase is enzymatically active, purified polypeptide was incubated with metabolically radiolabeled HSPG. The reaction products were analyzed by gel filtration on a Superose 12 column.

Laminarin sulfate
tumor growth and angiogenesis (lung metastasis): markedly reduced
incidence of lung metastasis (lung metastasis): markedly reduced
tumor metastasis in vivo (lung metastasis; in vivo): inhibit
human heparanase activity in vitro (human heparanase): inhibit
IC50 (mouse heparanase): 50 nM
inhibition of mouse heparanase activity at 1 μM (mouse heparanase; 1 μM): completely inhibited

heparin
inhibition of mouse heparanase enzyme activity (in words) (mouse heparanase): inhibited

mannopentaose phosphate sulfate [PI-88]
tumor growth and angiogenesis (lung metastasis): markedly reduced
incidence of lung metastasis (lung metastasis): markedly reduced

B1: mouse heparanase: Recombinant full-length mouse heparanase polypeptide of 535 amino acids, mature form a heterodimer of 50 kDa and 8 kDa (protein, UniProt Q6YGZ1 1-535, looked up)
chain: MLRLLLLWLWGPLGALAQGAPAGTAPTDDVVDLEFYTKRPLRSVSPSFLSITIDASLATDPRFLTFLGSPRLRALARGLSPAYLRFGGTKTDFLIFDPDKEPTSEERSYWKSQVNHDICRSEPVSAAVLRKLQVEWPFQELLLLREQYQKEFKNSTYSRSSVDMLYSFAKCSGLDLIFGLNALLRTPDLRWNSSNAQLLLDYCSSKGYNISWELGNEPNSFWKKAHILIDGLQLGEDFVELHKLLQRSAFQNAKLYGPDIGQPRGKTVKLLRSFLKAGGEVIDSLTWHHYYLNGRIATKEDFLSSDVLDTFILSVQKILKVTKEITPGKKVWLGETSSAYGGGAPLLSNTFAAGFMWLDKLGLSAQMGIEVVMRQVFFGAGNYHLVDENFEPLPDYWLSLLFKKLVGPRVLLSRVKGPDRSKLRVYLHCTNVYHPRYQEGDLTLYVLNLHNVTKHLKVPPPLFRKPVDTYLLKPSGPDGLLSKSVQLNGQILKMVDEQTLPALTEKPLPAGSALSLPAFSYGFFVIRNAKIAACI
modifications: full-length
notes: Recombinant full-length mouse heparanase polypeptide of 535 amino acids, mature form a heterodimer of 50 kDa and 8 kDa
pH at which the enzyme was most active ([1]; ^3H-HS at various pH conditions): 5.0
enzymatic activity at pH 4.0 or 8.0 ([1]; pH 4.0 or 8.0): Little or no enzymatic activity was detected
amount of heparanase giving maximal degradation of 6.25 nmole ^3H-HS ([1]; pH 5.0): 50 ng
additional enzyme necessary for comparable activity ([1]; pH 7.5 compared with pH 5.0): ~10 fold
degradation of ^35S-HSPG, elution profile on Superose 12 column ([1]; undigested substrate eluted in fractions 5-15): eluted as low-MW fragments in later fractions (16-35)
